Several values for one entry are separate records, joined by “and”; a condition that tells them apart may be missing. Equal values may be shown once.

We go through 15 molecules from ChEMBL document CHEMBL5728357, “Small molecule inhibitors of lactate dehydrogenase and methods of use thereof” (2021).

This assay is described as follows: Biochemical Assay: Test compounds were placed in a Greiner Bio-One (Monroe, N.C.) 1536-well black solid bottom assay plate. 200 millimolar (mM) Tris HCl, pH 7.4, 100 micromolar […] EDTA and 0.01% TWEEN-20™, final concentration, was used as the assay buffer. The LDHA reagent was 2 nanomolar (nM) Human LDHA (Meridian Life Science, Inc., Memphis, Tenn.), final concentration, in assay buffer.
`NS(=O)(=O)c1ccc(Cc2c(-c3cccc(-c4ccccc4)c3)nn(-c3nc(C(=O)O)cs3)c2CCC2CC2)cc1`: the IC50 was less than 100 nM.
Next, `C/C=C/c1cc(-c2nn(-c3nc(C(=O)O)cs3)c(CC3CC3)c2Cc2ccc([S+](N)(=O)[O-])c(F)c2)ccc1F`: less than 100 nM; `N[S+](=O)([O-])c1ccc(Cc2c(-c3ccc(F)c(C(F)(F)F)c3)nn(-c3nc(C(=O)O)cs3)c2CC2CC2)cc1F`: less than 100 nM; `CC(C)=Cc1cc(-c2nn(-c3nc(C(=O)O)cs3)c(CC3CC3)c2Cc2ccc([S+](N)(=O)[O-])c(F)c2)ccc1F`: less than 100 nM.
In the case of `CCOC(=O)c1csc(-n2nc(-c3ccc(F)c(C#CC4CCCC4)c3)c(Cc3cccc([S+](N)(=O)[O-])c3)c2CC2CC2)n1` it was more than 57000 nM.
Next, `COc1cccc(-c2cccc(-c3nn(-c4nc(C(=O)O)cs4)c(C4CC4)c3Cc3ccc([SH+](N)[O-])c(F)c3)c2)c1` (stereo not given): less than 100 nM; `C=C(C)c1cc(-c2nn(-c3nc(C(=O)O)cs3)c(CC3CC3)c2Cc2ccc([S+](N)(=O)[O-])c(F)c2)ccc1F`: less than 100 nM; `CCOC(=O)c1csc(-n2nc(-c3cccc(-c4ccc(C)cc4)c3)c(Cc3ccc([SH+](=O)[O-])c(F)c3)c2CC2CC2)n1`: “in the range around 29000 nM and > 57000 nM”.
As to `N[S+](=O)([O-])c1ccc(Cc2c(-c3ccc(F)c(/C=C/C4CC4)c3)nn(-c3nc(C(=O)O)cs3)c2CC2CC2)cc1F`, the IC50 was less than 100 nM.
With `N[S+](=O)([O-])c1ccc(Cc2c(-c3ccc(F)c(-c4ccc(F)cc4)c3)nn(-c3nc(C(=O)O)cs3)c2CC2CC2)c(F)c1`, the IC50 is less than 100 nM.
In the case of `N[S+](=O)([O-])c1ccc(Cc2c(-c3ccc(F)c(/C=C/C4CCCC4)c3)nn(-c3nc(C(=O)O)cs3)c2CC2CC2)cc1F` it was less than 100 nM; in that of `Cc1ccc(-c2cccc(-c3nn(-c4nc(C(=O)O)cs4)c(CC4CC4)c3Cc3ccc([SH+](N)[O-])cc3F)c2)cc1` (stereo not given), less than 100 nM; in that of `Cc1ccc(-c2cc(-c3nn(-c4nc(C(=O)O)cs4)c(CC4CC4)c3Cc3ccc([SH+](N)[O-])c(F)c3)ccc2F)cc1` (stereo not given), less than 100 nM.
With `CC#Cc1cccc(-c2nn(-c3ncc(C(=O)OCC)s3)c(CC3CC3)c2Cc2ccc([SH+](N)[O-])c(F)c2)c1` (stereo not given), the IC50 entry was “in the range around 29000 nM”.
`NS(=O)(=O)c1ccc(Cc2c(CC3CC3)nn(-c3nc(OC=O)cs3)c2-c2cc(F)cc(-c3cccc(F)c3)c2)cc1`: the IC50 result was “in the range around 29000 nM”.
